These results are taken from patent US20050272636A1, “Treatment and diagnosis of a reproductive disorder by measuring or inhibiting interferon-gamma” (Adelaide Research & Innovation Pty Ltd., priority 2002, published 2005).

The subject of the test is mice. Nature of the test: Effect of IFN-γ treatment on pregnancy outcome in mice (Example 8). In kind it is in vivo. The note with it: implantation rate, viable versus resorbing fetuses, fetal and placental weight on day 18. As for the experimental part: Mice are housed under specific pathogen-free conditions at the University of Adelaide Medical School Animal House on a 12:12 light-dark cycle, and administered food and water ad libitum. Adult Balb/c×C57B1/6 F1 females (7-10 weeks old) are synchronised into estrus by caging in close proximity to males. Estrus is identified on the basis of presence of cornified epithelial cells in vaginal smears prepared at 0900-1000 h daily and examined by phase contrast microscopy. On the day of estrus (day 0) females are caged with proven fertile Balb/k males for natural mating. The day of sighting a vaginal plug is nominated day 1 of pregnancy.
Mice are randomly allocated to one of four groups and treated as follows: Group 1 (100 ng IFN-γ) mice receive three intraperitoneal injections of […] recombinant mouse IFN-γ (rmIFN-γ, R&D Systems) in 200 μl PBS containing 1% bovine serum albumin (PBS-BSA) at 1700 h on day 0, at 1000 h on day 1 and 1700hon day 1.
Group 2 (250 ng IFN-γ) receive three injections of 250 ng rmIFN-γ according to the same time schedule.
Group 3 (control) receive three injections of PBS-BSA instead of IFN-γ according to the same time schedule.
Group 4 (comparison) Mice are mated but otherwise remain untreated.
Twenty mice per group are used to ensure statistical significance in treatment effects.
Alternatively, a transcervical delivery route for IFN-γ is used. Treatments are delivered directly into the uterine lumen with the aid of a tom-cat catheter (Sovereign, St Louis Mo.). In mated animals this requires removal of vaginal plugs using forceps to allow transcervical access. Mice are randomly allocated to one of four groups and treated as follows: the first group (100 ng IFN-γ) mice receive three transcervical injections of […] recombinant mouse IFN-γ (rmIFN-γ, R&D Systems) in 200 μl PBS containing 1% bovine serum albumin (PBS-BSA) at 1700 h on day 0, at 1000 h on day 1 and 1700 h on day 1. The second group (25 ng IFN-γ) receive three injections of 25 ng rmIFN-γ according to the same time schedule. The third group (control) receive three injections of PBS-BSA instead of IFN-γ according to the same time schedule. For comparison, a fourth group of mice are mated but otherwise would remain untreated. Twenty mice per group are used to ensure statistical significance in treatment effects.
Pregnant females are sacrificed by cervical dislocation at 1000 h -1200 h on day 18 of gestation. The intact uterus of each female is removed and total, viable and resorbing implantation sites counted. Each viable fetus is dissected from the amniotic sac and umbilical cord, and fetuses and placentae weighed. Placental tissues are fixed in paraformaldehyde and processed for histological staining of paraffin sections, using Masson's trichrome stain.

As to “rhTGFβ1: recombinant human transforming growth factor β1 (R&D Systems)”, the “effect on the detrimental effects of IFN-γ on pregnancy outcome” value was “reverses the detrimental effects of IFN-γ”.
